Consider one molecule from patent publication US20250186450A1, “COMBINATION THERAPY COMPRISING DGK INHIBITORS and PD-1/PD-L1 INHIBITORS” (Incyte Corporation, priority 2023, published 2025).

SMILES strings stand for the structures. “Also recorded” adds a separate entry of the source. Some results are limits rather than exact numbers.

One experiment deals with DGKα (Homo sapiens (Human), UniProt P23743). The experiment is described as follows: In vitro DGKα inhibition assay (ADP-Glo). Format: biochemical. The settings on record: 0.1 nM DGKα, 50 μM ATP, 20 μM DLG. The procedure: (§1) The DGKα and DGKζ biochemical reactions were performed using His-tagged human recombinant enzymes (Signal Chem, DGKα, #D21-10BH; DGKζ, #D30-10H)) and DLG (Dilauroyl-sn-glycerol) lipid substrate (Signal Chem, #D430-59). ADP-Glo assay was performed using ADP-Glo™ kinase Assay kit (Promega, #V9104). The reactions were carried out in assay buffer containing 40 mM Tris, pH 7.5, 0.1% CHAPS, 0.1% Prionex, 40 mM NaCl, 5 mM MgCl2, 1 mM CaCl2, and 1 mM DTT. DGKα reactions contained 0.1 nM DGKα, 50 μM ATP, and 20 μM DLG. And DGKζ reactions contained 0.4 nM DGKζ, 30 μM ATP, and 20 μM DLG.
(§2) For compound inhibition studies, 40 nL test compound in DMSO was added to wells of white polystyrene plates in 384-well (Greiner, #784075) or 1536-well format (Greiner, #782075). Compounds were added with top concentration of 2 mM with 11 point, 3-fold dilution series. Enzyme solution (contains 2×DGK enzyme concentration in 1× assay buffer) was added to the plate in 2 μL/well volume, followed by 2 μL/well of substrate solution (contains 2× concentration of ATP and DLG substrate in 1× assay buffer). Plates were then centrifuged for 1 min at 1200 RPM and sealed or lidded. For 4 μL reaction volume, test compounds were therefore diluted 100× to final top concentration of 20 μM. After 90 minute incubation, reactions were quenched by addition of 2 μL/well Promega ADP-Glo Reagent, followed by centrifugation and lidding. After 60 min incubation, 2 μL/well Promega Kinase Detection Reagent was added, plates centrifuged, and incubated for 30 min. Plates were then read using Luminescence method on BMG PHERAstar FSX plate reader. Percent inhibition was calculated and IC50s were determined using 4-parameter fit in Genedata Screener. Labcyte Echo acoustic dispenser was used for compound addition, and Formulatrix Tempest liquid handler was used for all reagent dispenses.

The target of another experiment is DGKζ (Homo sapiens (Human), UniProt Q13574). The experiment is described as follows: In vitro DGKζ inhibition assay (ADP-Glo). Particulars: 0.4 nM DGKζ, 30 μM ATP, 20 μM DLG. Format: biochemical. The procedure:
as §1, §2

The subject of experiment [1] is MC38 syngeneic tumor model. The experiment is described as follows: MC38 syngeneic tumor model, DGK inhibitor plus anti-PD-1 (RMP1-14). Format: in vivo, C57Bl/6 mice. The settings on record: FIGS. 9A-9B, listed as Compound 3. The procedure: The in vivo effect of combining Compound 1 plus anti-PD-1 (RMP1-14, Bio X Cell) was assessed in the MC38 (CRL-1642, ATCC, Manassas, VA) syngeneic tumor model (see FIG. 3) in 6 to 8 weeks old C57Bl/6 mice (Jackson laboratories). Compound 1 was suspended in 5% N,N-dimethylacetamide (DMAC)+50 mM Citrate buffer in 0.5% methyl cellulose for oral administration and RMP1-14 was suspended in saline for intraperitoneal administration. Briefly, the left flank of the mice was shaved the day prior to subcutaneous inoculation with 2×10^6 MC38 cells suspended in PBS. On day 7, tumor dimensions were measured by Vernier calipers, and volume estimated by the formula Volume=[L (long dimension)×W^2 (short dimension)]/2. Mice were randomized into 6 groups of 10 mice of approximate mean volume (˜160 mm^3). Tumors were measured 3 times per week for the duration of the study. Starting day 7, mice were dosed with (i) vehicle; (ii) 250 μg/mouse of RMP1-14; (iii) 10 mg/kg of Compound 1; (iv) 1 mg/kg of Compound 1; (v) 10 mg/kg of Compound 1 and 250 μg/mouse of RMP1-14; or (vi) 1 mg/kg of Compound 1 and 250 μg/mouse of RMP1-14. Compound 1 was administered orally once daily (QD) for 12 days, while RMP1-14 was dosed every 5 days (for a total of 3 doses).
The in vivo effect of combining Compound 2 plus anti-PD-1 (RMP1-14, Bio X Cell) was assessed in the MC38 (CRL-1642, ATCC, Manassas, VA) syngeneic tumor model in 6 to 8 weeks old C57Bl/6 mice (Jackson laboratories). Compound 2 was suspended in 5% N,N-dimethylacetamide (DMAC)+50 mM Citrate buffer in 0.5% methyl cellulose for oral administration and RMP1-14 was suspended in saline for intraperitoneal administration. Briefly, the left flank of the mice was shaved the day prior to subcutaneous inoculation with 2×10^6 MC38 cells suspended in PBS. On day 7, tumor dimensions were measured by Vernier calipers, and volume estimated by the formula Volume=[L (long dimension)×W^2 (short dimension)]/2. Mice were randomized into 6 groups of 10 mice of approximate mean volume (˜130 mm^3). Tumors were measured 3 times per week for the duration of the study. Starting day 7, mice were dosed with (i) vehicle; (ii) 250 μg/mouse of RMP1-14 (Anti-PD-1); (iii) 0.5 mg/kg of Compound 2 QD; (iv) 0.5 mg/kg of Compound 2 […] and 250 μg/mouse of RMP1-14; (v) 0.5 mg/kg of Compound 2 Q2D; (vi) 0.5 mg/kg of Compound 2 […] and 250 μg/mouse of RMP1-14; (vii) 1.5 mg/kg of Compound 2 QD; (viii) 1.5 mg/kg of Compound 2 QD and 250 μg/mouse of RMP1-14 (ix) 1.5 mg/kg of Compound 2 Q2D; (x) 1.5 mg/kg of Compound 2 Q2D and 250 μg/mouse of RMP1-14; (xi) 1.5 mg/kg of Compound 2 Q3D; or (xii) 1.5 mg/kg of Compound 2 Q3D and 250 μg/mouse of RMP1-14.
The in vivo effect of combining 2-(4-((2S,5R)-4-(bis(4-fluorophenyl)methyl)-2,5-dimethylpiperazin-1-yl)-1H-[1,2,4]triazolo[3,4-b]purin-1-yl)-N,N-dimethylethane-1-amine (i.e., Compound 3) plus anti-PD-1 (RMP1-14, Bio X Cell) was assessed in the MC38 (CRL-1642, ATCC, Manassas, VA) syngeneic tumor model in 6 to 8 weeks old C57Bl/6 mice (Jackson laboratories). Compound 3 was suspended in 5% N,N-dimethylacetamide (DMAC)+50 mM Citrate buffer in 0.5% methyl cellulose for oral administration and RMP1-14 was suspended in saline for intraperitoneal administration. Briefly, the left flank of the mice was shaved the day prior to subcutaneous inoculation with 2×10^6 MC38 cells suspended in PBS. On day 7, tumor dimensions were measured by Vernier calipers, and volume estimated by the formula Volume=[L (long dimension)×W^2 (short dimension)]/2. Mice were randomized into 6 groups of 10 mice of approximate mean volume (˜200 mm^3). Tumors were measured 3 times per week for the duration of the study. Starting day 7, mice were dosed with (i) vehicle; (ii) 250 μg/mouse of RMP1-14 (Anti-PD-1); (iii) 10 mg/kg of Compound 3 QD; (iv) 10 mg/kg of Compound 3 QD and 250 μg/mouse of RMP1-14; (v) 30 mg/kg of Compound 3 QD; or (vi) 30 mg/kg of Compound 3 QD and 250 μg/mouse of RMP1-14.

Sequence of DGKα (P23743 whole entry): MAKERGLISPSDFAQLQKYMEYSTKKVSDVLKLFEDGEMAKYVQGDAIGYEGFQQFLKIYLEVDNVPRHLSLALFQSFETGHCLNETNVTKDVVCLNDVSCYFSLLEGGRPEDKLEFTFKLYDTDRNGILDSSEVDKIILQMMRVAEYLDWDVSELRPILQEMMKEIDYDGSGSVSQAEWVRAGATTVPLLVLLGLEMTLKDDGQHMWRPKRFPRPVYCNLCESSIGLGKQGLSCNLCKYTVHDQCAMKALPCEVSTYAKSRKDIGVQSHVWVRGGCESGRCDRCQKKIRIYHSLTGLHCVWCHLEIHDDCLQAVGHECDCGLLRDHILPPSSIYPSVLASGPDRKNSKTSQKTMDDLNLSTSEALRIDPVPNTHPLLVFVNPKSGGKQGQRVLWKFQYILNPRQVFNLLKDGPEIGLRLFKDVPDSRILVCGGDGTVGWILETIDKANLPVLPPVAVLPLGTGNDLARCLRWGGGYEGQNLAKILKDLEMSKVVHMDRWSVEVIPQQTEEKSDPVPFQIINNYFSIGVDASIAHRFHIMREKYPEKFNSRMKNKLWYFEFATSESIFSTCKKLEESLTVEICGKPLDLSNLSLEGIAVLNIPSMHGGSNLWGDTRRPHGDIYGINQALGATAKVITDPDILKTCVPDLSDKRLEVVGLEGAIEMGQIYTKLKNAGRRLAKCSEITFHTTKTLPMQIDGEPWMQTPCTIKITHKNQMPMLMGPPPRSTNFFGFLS
Sequence of DGKζ (Q13574 whole entry): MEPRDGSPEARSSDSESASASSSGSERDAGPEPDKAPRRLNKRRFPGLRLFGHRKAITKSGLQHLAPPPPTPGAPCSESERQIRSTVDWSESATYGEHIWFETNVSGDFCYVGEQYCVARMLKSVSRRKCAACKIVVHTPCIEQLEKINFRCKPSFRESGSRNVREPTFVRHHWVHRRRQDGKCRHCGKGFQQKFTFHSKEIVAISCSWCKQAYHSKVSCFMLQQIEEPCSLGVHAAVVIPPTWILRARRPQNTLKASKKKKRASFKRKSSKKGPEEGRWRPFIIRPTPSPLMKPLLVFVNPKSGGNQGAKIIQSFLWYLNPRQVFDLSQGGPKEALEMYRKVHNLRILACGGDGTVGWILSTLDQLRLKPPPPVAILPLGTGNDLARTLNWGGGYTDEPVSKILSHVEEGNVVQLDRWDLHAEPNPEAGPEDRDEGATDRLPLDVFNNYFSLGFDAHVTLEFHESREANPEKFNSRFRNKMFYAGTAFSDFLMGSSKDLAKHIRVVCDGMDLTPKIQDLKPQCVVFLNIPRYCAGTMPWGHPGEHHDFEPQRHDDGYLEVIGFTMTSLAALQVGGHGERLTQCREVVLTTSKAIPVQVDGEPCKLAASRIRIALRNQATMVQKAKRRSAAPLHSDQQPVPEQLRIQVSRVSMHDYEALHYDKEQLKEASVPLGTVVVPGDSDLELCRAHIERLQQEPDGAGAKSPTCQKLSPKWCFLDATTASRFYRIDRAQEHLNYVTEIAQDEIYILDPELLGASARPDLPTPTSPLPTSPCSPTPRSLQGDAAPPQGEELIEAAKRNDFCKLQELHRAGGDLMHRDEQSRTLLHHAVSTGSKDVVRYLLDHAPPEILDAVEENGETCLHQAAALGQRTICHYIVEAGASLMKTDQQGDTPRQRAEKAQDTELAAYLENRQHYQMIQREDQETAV

Turning to `C[C@@H]1CN(c2nc3nncn3c3c2ncn3CCN(C)C)[C@@H](C)CN1C(c1ccc(F)cc1)c1ccc(F)cc1` [Example 24, 2-(4-((2S,5R)-4-(Bis(4-fluorophenyl)methyl)-2,5-dimethylpiperazin-1-yl)-1H-[1,2,4]triazolo[3,4-b]purin-1-yl)-N,N-dimethylethane-1-amine], the IC50 against DGKα and against DGKζ was at most 20 nM in each case. Also, in experiment [1] (30 mg/kg Compound 3 QD and 250 μg/mouse RMP1-14), the “TGI, combined with anti-PD-1 mAb, vs anti-PD-1 control group” value is “statistically significant; also recorded: significant TGI”. The “TGI vs vehicle control group” value in experiment [1] (all groups treated with Compound 3: 10 or 30 mg/kg QD, alone or with 250 μg/mouse RMP1-14) is “Tumor growth inhibition of Compound 3 was observed for all groups; also recorded: statistically significant TGI”.
